According to patent US5776461A, “Cosmetic compositions containing phytovitamin D” (Chesebrough-Pond's USA Co., Division of Conopco, Inc., priority 1996, dated 1998):
Entries after “also recorded” stand apart in the source; their conditions may differ.

Experiments:
[1] = tested on: vitamin D binding protein; details: 25-D = 100%; cited from earlier work
[2] = tested on: keratinocyte; details: cited from earlier work
[3] = tested on: HL-60 cells; test: HL-60 cell differentiation assay (nonspecific esterase expression); format: cell-based; details: for HL-60 differentiation activity (in words): pure vitamin D compounds; for % differentiation: 48 hrs
Excerpt: This test can be utilized to assess the vitamin D content of plant extracts after converting the glycosides and other hydroxylated forms of vitamin D to 1,25-(OH)2 D. One can achieve this by following the procedure: [drawing 2] Glycosidases cleave vitamin D glycosides to the aglycone form (free steroid form). […] This can be again extracted into chloroform phase and redissolved in ethanol and tested in the HL-60 cell differentiation assay. Using this procedure, the glycosylated and nonglycosylated forms of 25-D and 1,25-(OH)2 D of both vitamin D2 and D3 can be quantitated in HL-60 cell differentiation assay.
a. Plant Extract preparation: The plant extracts are prepared by extracting the dry plant powders with ethanol or other solvents by stirring 1 part of the plant material with 5 to 10 parts of the solvent for 3 to 18 hours at room temperature. Suitable solvents are described hereinbelow. The extracts are clarified by filtration, then dried by evaporation to obtain a dried plant extract.
b. Treatment of Dried Plant Extracts with Glycosidase: 50 mg of dried plant extract are resuspended in 4 ml citrate-phosphate buffer and incubated overnight with a glycosidase enzyme (e.g., from an almond meal extract). After incubation, the mixture is extracted with chloroform. The chloroform phase containing the nonglycosylated vitamin D compounds is dried and resuspended in ethanol at a concentration of 5 mg/ml of ethanol.
c. Hydroxylase Treatment of product of step (b) (Non-Glycosylated Vitamin D Compounds): Human keratinocytes in culture express high amounts of 25(OH) vitamin D 1-a hydroxylase activity. For converting into the 1,25-(OH)2 D, which is detected by the product of step (b) in the HL-60 assay, is treated with a keratinocyte homogenate for 1 hour at 37° C. (50 μl of the product of step b with 1 ml of cell homogenate containing 100-200 μg cell protein). After the treatment, the mixture is extracted with chloroform:methanol (1:1), the chloroform phase is dried down, resuspended in ethanol and used in the HL-60 cell differentiation assay.
d. HL-60 Cell Differentiation Assay: The differentiation of HL-60 cells can be assessed by a simple cytochemical method for the expression of non-specific esterase activity (expressed only in the differentiated monocyte/macrophage phenotype) using α-naphthyl acetate as a substrate. HL-60 cell line is obtained (e.g. from American Type Culture Collection (ATCC)) and cultures are established in the laboratory (e.g. using RPMI medium containing 20% fetal calf serum (FCS)). For incubation with the different plant extracts, cells are washed in phosphate buffered saline (PBS), then resuspended in RPMI medium containing 10% FCS and plated at a density of 750,000 cells per 1 ml in 6 well plates. The plates are then treated with either standard 1,25-(OH)2 D (0.1 to 100 nM) or the different plant extracts in ethanol, using a maximum ethanol concentration of 5 μl/ml of medium. The cells are treated for 48 hrs before processing for the esterase cytochemical assay.
Expression of nonspecific esterase in HL-60 cells is determined after mounting the cells onto slides using Cytospin. The slides are then fixed in citrateacetone-methanol for 1 min at room temperature, washed in deionized water and air dried for 20 min. The substrate solution for esterase is prepared according to the procedure provided by Sigma by adding 1 capsule of Fast Blue RR salt to 50 ml Trizma buffer (pH 7.6)and 2 ml of α-naphthyl acetate solution. The slides are incubated at 37° C. in this solution for 30 min in the dark. The slides are washed for 3 min in water, counterstained using Mayer's Hematoxylin solution air dried and viewed under microscope. The number of cells showing dark brown precipitate indicating esterase activity is counted and calculated as a percent of the total number of cells in 6 different areas of the slide (approximately 500 total cells).

[4] = tested on: adult human keratinocytes; test: cornified envelope formation of adult human keratinocytes; format: cell-based; details: Table 6; no almond meal extract, 48 hrs; 1,25-OH2 D at 1 nM
Experimental: In this method, keratinocytes were treated with the various extracts dissolved in ethanol (as described for the HL-60 assay) for 48 hrs in the presence of 5 uCi of 35S methionine included in the medium. The labelled methionine gets incorporated into the newly synthesized proteins during this 48 hr. period, including the proteins required for the formation of cornified envelopes. […] This treatment allows Ca to flow into the cells, maximally activate the enzyme transglutaminase and crosslinks all the labelled cornified envelope precursor proteins to form labelled cornified envelopes. The cells were then dissolved in 2%SDS/40 mM DTT, and the amount of insoluble cornified envelopes was quantitated by scintillation counting after separating from the soluble proteins by filtration on 0.2 micron filters.

[5] = tested on: Cultured Human Keratinocytes; details: cited from earlier work

Compound	detection (cross-reactivity) in vitamin D binding assay [1] [%]	% differentiation ([3]; 1 nM) [%]	% differentiation ([3]; 10 nM) [%]	% differentiation ([3]; 100 nM) [%]	HL-60 differentiation activity (in words) [3]	% differentiation ([3]; 0.1 nM) [%]	other results
C=C1CC[C@H](O)C/C1=C/C=C1\CCC[C@]2(C)[C@@H]([C@H](C)CCC(O)C(C)(C)O)CC[C@@H]12 (stereo partly drawn) [24,25(OH)2 D]	70						
Vitamin D	0.4						biological activity (in words) ([2]; vitamin D per se): biologically inactive; HL-60 differentiation activity (in words) ([3]; listed as non-hydroxylated vitamin D): inactive at all concentrations; HL-60 differentiation activity (in words) ([3]; listed as nonhydroxylated vitamin D): do not induce its differentiation
C=C1CC[C@H](O)C/C1=C/C=C1\CCC[C@]2(C)[C@@H]([C@H](C)CCCC(C)(C)O)CC[C@@H]12 [25-D, 25-hydroxycholecalciferol]	100	0	0	0	inactive at all concentrations		HL-60 differentiation activity (in words) ([3]; listed as 25D): do not induce its differentiation
C=C1/C(=C\C=C2/CCC[C@]3(C)[C@@H]([C@H](C)CCCC(C)(C)O)CC[C@@H]23)C[C@@H](O)C[C@@H]1O [1,25-(OH)2 D, 1,25-Dihydroxyvitamin D3]	4	50	90	95	induces HL-60 cell differentiation in a dose-dependent manner; also recorded: promoted	5	lowest concentration at which differentiation ability could be detected ([3]; HL-60, 48 hrs): 0.1 nM; EC50 ([3]; HL-60, 48 hrs, read-out: concentration for half maximal differentiation): 1 nM; cornified envelope formation, no hydrolysis [4]: 207.6 % of control
C=C1CC[C@H](O)C/C1=C/C=C1\CCC[C@]2(C)[C@@H]([C@H](C)CCCC(C)C)CC[C@@H]12 [Vitamin D3, cholecalciferol]		0	0	0		0	keratinocyte prodifferentiating activity (in words) ([2]; applied topically to skin): neither has keratinocyte prodifferentiating activity; conversion in skin to 25-D (in words) [5]: nor is it converted in the skin to 25-D
C=C1/C(=C\C=C2/CCC[C@]3(C)[C@@H]([C@H](C)CCC(O)C(C)(C)O)CC[C@@H]23)C[C@@H](O)CC1O (stereo partly drawn) [1,24,25-D(OH)3]					inactive at all concentrations		
